One series can be described thus: Mouse plasma stability. The format is in vitro ADME. The following applies: pooled mouse plasma, 37° C. In outline:
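Compounds at 1 μM in pooled mouse plasma at 37° C. were sampled at 0.5–240 min and quenched with cold acetonitrile containing internal standard. LC/MS/MS gave % remaining. The slope of ln(compound/IS peak-area ratio) against time was determined.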

For a further series, the target named is T1, human MC4R (Homo sapiens, UniProt P32245).
T1 construct: host or cells: HEK-293 cells stably expressing the GScAMP22F split-luciferase cAMP sensor and hMC4R, G418 selection
T1 sequence (P32245 whole entry): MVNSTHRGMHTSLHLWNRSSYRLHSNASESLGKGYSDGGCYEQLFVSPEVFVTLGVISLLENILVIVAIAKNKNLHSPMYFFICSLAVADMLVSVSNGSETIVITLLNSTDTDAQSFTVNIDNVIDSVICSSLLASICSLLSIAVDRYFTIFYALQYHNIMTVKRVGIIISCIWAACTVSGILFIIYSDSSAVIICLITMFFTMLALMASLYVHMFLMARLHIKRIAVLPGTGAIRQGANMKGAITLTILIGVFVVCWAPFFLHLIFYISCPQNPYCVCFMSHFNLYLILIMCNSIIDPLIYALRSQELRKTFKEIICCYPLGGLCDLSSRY
Nature of the series: split-luciferase cAMP sensor assay, agonist mode (measurement window 1), hMC4R. The format is cell-based. The following applies: % maximal activation, agonist mode; read-out: MC4R cAMP % max activation. In outline: (§1)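 EC50 values come from a four-parameter variable-slope fit of luminescence in measurement window 1, capturing direct peptide effects on receptor-expressing cells with a cAMP22f luciferase sensor. Cells were preloaded with 4% D-luciferin, serum-free medium; 20 μM forskolin normalized for cell number and transducer efficiency.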

The target in a further series is T2, human MC3R (Homo sapiens, UniProt P41968).
T2 construct: expressed in transfected cells; host or cells: HEK-293 cells stably expressing the GScAMP22F split-luciferase cAMP sensor (parent reporter line from Promega); MC3R clone generated in-house, G418 selection
T2 sequence (P41968 whole entry): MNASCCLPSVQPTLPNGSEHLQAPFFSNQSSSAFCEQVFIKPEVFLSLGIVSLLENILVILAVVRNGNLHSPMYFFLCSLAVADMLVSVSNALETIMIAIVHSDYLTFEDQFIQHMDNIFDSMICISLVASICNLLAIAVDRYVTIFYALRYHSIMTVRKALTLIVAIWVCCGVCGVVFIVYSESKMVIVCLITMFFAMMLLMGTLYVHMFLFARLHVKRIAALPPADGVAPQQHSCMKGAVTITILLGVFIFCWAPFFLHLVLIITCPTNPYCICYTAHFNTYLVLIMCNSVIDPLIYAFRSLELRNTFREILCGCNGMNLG
The experiment in a line: split-luciferase cAMP sensor assay, agonist mode (measurement window 1), hMC3R. The format is cell-based. In outline:
as §1

Positions of bridges follow the written chain, without caps; N, C: chain ends. Non-standard residues stand in square brackets, D forms with d. Residues, ends and D or L forms follow the SMILES beside them. Nle = CCCC[C@H](N)C(=O)O

In general, half-life refers to the time in which the quantity being followed falls by half. High values mean slow decline, low ones rapid decline. Broadly, the EC50 is the concentration at which the effect is half-maximal.

With `CCCC[C@H](NC(=O)[C@H](CCCNC(=N)N)NC(C)=O)C(=O)N[C@H]1CSSC[C@@H](C(N)=O)NC(=O)[C@H](Cc2c[nH]c3ccccc23)NC(=O)[C@H](CCCNC(=N)N)NC(=O)[C@@H](Cc2ccccc2)NC(=O)[C@H](Cc2c[nH]cn2)NC1=O` [CTX-1227, Arg-Nle-cyclo(Cys-His-D-Phe-Arg-Trp-Cys)] (Ac-R[Nle]CH[dF]RWC-NH2; disulfide 3-8 (inferred)), the half-life at 1 µM in “Mouse plasma stability” was 1.05 h. The Emax at human MC4R is 103%; on human MC3R (% maximal activation, agonist mode, read-out: MC3R cAMP % max activation), 96%. Further, at human MC3R (HEK-293 cells stably expressing hMC3R, agonist mode, read-out: MC3R cAMP EC50), the EC50 was 2.8 nM. Also, at human MC3R (MC4R versus MC3R), the “MC4R selectivity vs MC3R” value amounted to 11.

For the origin of these results see patent US20240391954A1, “MC4R AGONIST PEPTIDES” (The Regents of the University of Michigan, priority 2021, published 2024).
